Results taken from ChEMBL document CHEMBL2440076, “New triarylpyrazoles as broad-spectrum anticancer agents: design, synthesis, and biological evaluation” (Eur J Med Chem, 2013).

Tests used:
Assay type in all cases: functional
SK-MEL-2 = experiment: Growth inhibition of human SK-MEL-2 cells assessed as cell growth at 3X10'-7 M after 48 hrs by sulforhodamine B assay; details: SK-MEL-2, 48 h, read-out: Activity
SNB-75 [1] = experiment: Growth inhibition of human SNB75 cells assessed as cell growth at 3X10'-7 M after 48 hrs by sulforhodamine B assay; details: SNB-75, 48 h, read-out: Activity
SF-268 = experiment: Growth inhibition of human SF268 cells assessed as cell growth at 3X10'-7 M after 48 hrs by sulforhodamine B assay; details: SF-268, 48 h, read-out: Activity
NCI-H522 = experiment: Growth inhibition of human NCI-H522 cells assessed as cell growth at 3X10'-7 M after 48 hrs by sulforhodamine B assay; details: NCI-H522, 48 h, read-out: Activity
NCI-H322M = experiment: Growth inhibition of human NCI-H322M cells assessed as cell growth at 3X10'-7 M after 48 hrs by sulforhodamine B assay; details: read-out: Activity
NCI-H226 = experiment: Growth inhibition of human NCI-H226 cells assessed as cell growth at 3X10'-7 M after 48 hrs by sulforhodamine B assay; details: NCI-H226, 48 h, read-out: Activity
HOP-62 [2] = experiment: Growth inhibition of human HOP62 cells assessed as cell growth at 3X10'-7 M after 48 hrs by sulforhodamine B assay; details: HOP-62, 48 h, read-out: Activity
A549 [3] = experiment: Growth inhibition of human A549/ATCC cells assessed as cell growth at 3X10'-7 M after 48 hrs by sulforhodamine B assay; details: A549, 48 h, read-out: Activity
SR = experiment: Growth inhibition of human SR cells assessed as cell growth at 3X10'-7 M after 48 hrs by sulforhodamine B assay; details: read-out: Activity
RPMI-8226 = experiment: Growth inhibition of human RPMI8226 cells assessed as cell growth at 3X10'-7 M after 48 hrs by sulforhodamine B assay; details: RPMI-8226, 48 h, read-out: Activity
MCF7 = experiment: Growth inhibition of human MCF7 cells assessed as cell growth at 3X10'-8 M after 48 hrs by sulforhodamine B assay; details: MCF7, 48 h, read-out: Activity
A498 [4] = experiment: Growth inhibition of human A498 cells assessed as cell growth at 3X10'-8 M after 48 hrs by sulforhodamine B assay; details: A498, 48 h, read-out: Activity
MDA-MB-468 = experiment: Growth inhibition of human MDA-MB-468 cells assessed as cell growth at 3X10'-5 M after 48 hrs by sulforhodamine B assay; details: MDA-MB-468, 48 h, read-out: Activity
OVCAR-4 = experiment: Growth inhibition of human OVCAR4 cells assessed as cell growth at 3X10'-8 M after 48 hrs by sulforhodamine B assay; details: OVCAR-4, 48 h, read-out: Activity
SNB-75 [5] = experiment: Growth inhibition of human SNB75 cells assessed as cell growth at 3X10'-8 M after 48 hrs by sulforhodamine B assay; details: SNB-75, 48 h, read-out: Activity
HT-29 = experiment: Growth inhibition of human HT-29 cells assessed as cell growth at 3X10'-8 M after 48 hrs by sulforhodamine B assay; details: HT-29, 48 h, read-out: Activity
HOP-62 [6] = experiment: Growth inhibition of human HOP62 cells assessed as cell growth at 3X10'-8 M after 48 hrs by sulforhodamine B assay; details: HOP-62, 48 h, read-out: Activity
786-0 = experiment: Growth inhibition of human 786-0 cells assessed as cell growth at 3X10'-5 M after 48 hrs by sulforhodamine B assay; details: 786-0, 48 h, read-out: Activity
[7] = Growth inhibition of human NCI-ADR-RES cells assessed as cell growth at 3X10'-9 M after 48 hrs by sulforhodamine B assay; details: read-out: Activity
SK-MEL-28 = experiment: Growth inhibition of human SK-MEL-28 cells assessed as cell growth at 3X10'-5 M after 48 hrs by sulforhodamine B assay; details: SK-MEL-28, 48 h, read-out: Activity
Malme-3M = experiment: Growth inhibition of human MALME-3M cells assessed as cell growth at 3X10'-5 M after 48 hrs by sulforhodamine B assay; details: read-out: Activity
SF-539 [8] = experiment: Growth inhibition of human SF539 cells assessed as cell growth at 3X10'-5 M after 48 hrs by sulforhodamine B assay; details: SF-539, 48 h, read-out: Activity
A549 [9] = experiment: Growth inhibition of human A549/ATCC cells assessed as cell growth at 3X10'-5 M after 48 hrs by sulforhodamine B assay; details: A549, 48 h, read-out: Activity
HOP-62 [10] = experiment: Growth inhibition of human HOP62 cells assessed as cell growth at 3X10'-5 M after 48 hrs by sulforhodamine B assay; details: HOP-62, 48 h, read-out: Activity
[11] = Growth inhibition of human Hs 578T cells assessed as cell growth at 3X10'-6 M after 48 hrs by sulforhodamine B assay; details: read-out: Activity
UACC-257 = experiment: Growth inhibition of human UACC257 cells assessed as cell growth at 3X10'-9 M after 48 hrs by sulforhodamine B assay; details: UACC-257, 48 h, read-out: Activity
M14 = experiment: Growth inhibition of human M14 cells assessed as cell growth at 3X10'-9 M after 48 hrs by sulforhodamine B assay; details: M14, 48 h, read-out: Activity
SF-539 [12] = experiment: Growth inhibition of human SF539 cells assessed as cell growth at 3X10'-9 M after 48 hrs by sulforhodamine B assay; details: SF-539, 48 h, read-out: Activity
RXF 393 = experiment: Growth inhibition of human RXF393 cells assessed as cell growth at 3X10'-6 M after 48 hrs by sulforhodamine B assay; details: RXF 393, 48 h, read-out: Activity
A498 [13] = experiment: Growth inhibition of human A498 cells assessed as cell growth at 3X10'-6 M after 48 hrs by sulforhodamine B assay; details: A498, 48 h, read-out: Activity
OVCAR-8 = experiment: Growth inhibition of human OVCAR8 cells assessed as cell growth at 3X10'-6 M after 48 hrs by sulforhodamine B assay; details: OVCAR-8, 48 h, read-out: Activity
IGROV-1 = experiment: Growth inhibition of human IGROV1 cells assessed as cell growth at 3X10'-6 M after 48 hrs by sulforhodamine B assay; details: IGROV-1, 48 h, read-out: Activity
UACC-62 = experiment: Growth inhibition of human UACC62 cells assessed as cell growth at 3X10'-6 M after 48 hrs by sulforhodamine B assay; details: UACC-62, 48 h, read-out: Activity
SNB-19 = experiment: Growth inhibition of human SNB19 cells assessed as cell growth at 3X10'-6 M after 48 hrs by sulforhodamine B assay; details: SNB-19, 48 h, read-out: Activity
SNB-75 [14] = experiment: Growth inhibition of human SNB75 cells assessed as cell growth at 3X10'-6 M after 48 hrs by sulforhodamine B assay; details: SNB-75, 48 h, read-out: Activity
CCRF-CEM = experiment: Growth inhibition of human CCRF-CEM cells assessed as cell growth at 3X10'-6 M after 48 hrs by sulforhodamine B assay; details: read-out: Activity
MDA-MB-231 = experiment: Growth inhibition of human MDA-MB-231 cells assessed as cell growth at 3X10'-7 M after 48 hrs by sulforhodamine B assay; details: MDA-MB-231, 48 h, read-out: Activity

SMILES	growth at 0.3 µM (SK-MEL-2)	growth at 0.3 µM (SNB-75 [1])	growth at 0.3 µM (SF-268)	growth at 0.3 µM (NCI-H522)	growth at 0.3 µM (NCI-H322M)	growth at 0.3 µM (NCI-H226)	growth at 0.3 µM (HOP-62 [2])	growth at 0.3 µM (A549 [3])	growth at 0.3 µM (SR)	growth at 0.3 µM (RPMI-8226)	growth at 0.03 µM (MCF7)	growth at 0.03 µM (A498 [4])	growth at 30 µM (MDA-MB-468)	growth at 0.03 µM (OVCAR-4)	growth at 0.03 µM (SNB-75 [5])	growth at 0.03 µM (HT-29)	growth at 0.03 µM (HOP-62 [6])	growth at 30 µM (786-0)	growth at 0.003 µM [7]	growth at 30 µM (SK-MEL-28)	further results
COc1cc(-c2nn(-c3cccc(NC(=O)c4ccc(Cl)c(C(F)(F)F)c4)c3)cc2-c2ccncc2)ccc1Cl	96%	77%	89%	89%	92%	84%	94%	92%	82%	94%	93%	89%	9%	103%	89%	99%	96%	32%	97%	29%	growth at 30 µM (Malme-3M): -6%; growth at 30 µM (SF-539 [8]): -15%; growth at 30 µM (A549 [9]): 16%; growth at 30 µM (HOP-62 [10]): 35%; growth at 3 µM [11]: 43%; growth at 0.003 µM (UACC-257): 93%; growth at 0.003 µM (M14): 99%; growth at 0.003 µM (SF-539 [12]): 100%; growth at 3 µM (RXF 393): 36%; growth at 3 µM (A498 [13]): 47%; growth at 3 µM (OVCAR-8): 50%; growth at 3 µM (IGROV-1): 40%; growth at 3 µM (UACC-62): 40%; growth at 3 µM (SNB-19): 66%; growth at 3 µM (SNB-75 [14]): 44%; growth at 3 µM (CCRF-CEM): 32%; growth at 0.3 µM (MDA-MB-231): 81%
O=C(Nc1cccc(-n2cc(-c3ccncc3)c(-c3ccc(Cl)c(O)c3)n2)c1)Nc1ccc(Cl)c(Cl)c1	111%	83%	102%	97%	113%	94%	111%	85%	97%	90%	93%	95%	-18%	102%	92%	104%	96%	5%	100%	-27%	growth at 30 µM (Malme-3M): -15%; growth at 30 µM (SF-539 [8]): -34%; growth at 30 µM (A549 [9]): 8%; growth at 30 µM (HOP-62 [10]): -13%; growth at 3 µM [11]: -1%; growth at 0.003 µM (UACC-257): 95%; growth at 0.003 µM (M14): 93%; growth at 0.003 µM (SF-539 [12]): 92%; growth at 3 µM (RXF 393): 16%; growth at 3 µM (A498 [13]): -1%; growth at 3 µM (OVCAR-8): 16%; growth at 3 µM (IGROV-1): 29%; growth at 3 µM (UACC-62): 14%; growth at 3 µM (SNB-19): 23%; growth at 3 µM (SNB-75 [14]): 20%; growth at 3 µM (CCRF-CEM): 10%; growth at 0.3 µM (MDA-MB-231): 94%
